Laboratory results published in US10610522B2, “Methods for retreating irritable bowel syndrome (IBS)” (Salix Pharmaceuticals, Inc., priority 2014, dated 2020).

Test system: C. difficile infection (CDI)
Experiment: Double-blind non-inferiority trial rifaximin 400 mg TID vs vancomycin 125 mg QID, 10 days, C. difficile infection
Type: in vivo, human
Procedure: Criteria for entry into the trial were: • Age >=18 years old; • Had acute diarrhea at screening defined as >=3 unformed stools in the last 24 hours and at least one sign of enteric infection (fever, nausea, lose of appetite, vomiting, severe abdominal pain/discomfort); and • a positive C. diff stool toxin assay Endpoint:
The primary efficacy endpoint of the study was defined as the proportion of subjects achieving clinical success. Specifically, clinical success was defined as the absence of severe abdominal pain at Test of Cure (TOC), absence of fever (<38° C.) at TOC, and <3 unformed stools for two consecutive days at TOC.
Clinical success was defined as the: Absence of severe abdominal pain at TOC, absence of fever (<38° C.) at TOC, and <3 unformed stools for two consecutive days at TOC. Test of cure defined as Day 14+/−1 day.
Recurrence was defined to be a diarrhea and a positive C. diff stool toxin assay that occurred after initial clinical success.
Global cure of diarrhea was defined as subjects who were cured of diarrhea at TOC without recurrence at follow up.
Subjects who completed the study without achieving clinical success were censored at Day 14

[1] = Rifaximin N = 117, Vancomycin N = 115
[2] = adjusting for concomitant medication usage, Rifaximin N = 109, Vancomycin N = 112
[3] = adjusting for concomitant medication usage, Rifaximin N = 117, Vancomycin N = 115
[4] = after initial clinical success, Rifaximin N = 67, Vancomycin N = 73
[5] = all subjects, Rifaximin N = 117, Vancomycin N = 115
[6] = at TOC, Rifaximin N = 108, Vancomycin N = 111
[7] = at TOC, Rifaximin N = 117, Vancomycin N = 115
[8] = cured at TOC without recurrence at follow up, Rifaximin N = 117, Vancomycin N = 115
[9] = subgroup Age <65, at TOC, Rifaximin N = 69, Vancomycin N = 62
[10] = subgroup Age >=65, at TOC, Rifaximin N = 39, Vancomycin N = 49
[11] = subgroup Female, at TOC, Rifaximin N = 68, Vancomycin N = 64
[12] = subgroup Male, at TOC, Rifaximin N = 40, Vancomycin N = 47

**Q.** With `CN[C@H](CC(C)C)C(=O)N[C@H]1C(=O)N[C@@H](CC(N)=O)C(=O)N[C@H]2C(=O)N[C@H]3C(=O)N[C@H](C(=O)N[C@H](C(=O)O)c4cc(O)cc(O)c4-c4cc3ccc4O)[C@H](O)c3ccc(c(Cl)c3)Oc3cc2cc(c3O[C@@H]2O[C@H](CO)[C@@H](O)[C@H](O)[C@H]2O[C@H]2C[C@](C)(N)[C@H](O)[C@H](C)O2)Oc2ccc(cc2Cl)[C@H]1O` [Vancomycin] as the compound, how does the “Continuing Illness No: % of subjects” value [1] read?
**A.** Its value is 86%.

**Q.** And the “Continuing Illness No: number of subjects” value [1]?
**A.** Its value is 99.

**Q.** And the “Continuing Illness Yes: % of subjects” value [1]?
**A.** Its value is 14%.

**Q.** What about the “Continuing Illness Yes: number of subjects” value [1] of the same compound?
**A.** The value was 16.

**Q.** And the “Global Cure of Diarrhea No: % of subjects” value [1]?
**A.** The value was 26%.

**Q.** And the “Global Cure of Diarrhea No: number of subjects” value [1]?
**A.** The value was 30.

**Q.** What about the “Diarrhea No: % of subjects” value [2] of the same compound?
**A.** Its value is 73%.

**Q.** What about the “Diarrhea No: number of subjects” value [2] of the same compound?
**A.** The value was 82.

**Q.** And the “Diarrhea Yes: % of subjects” value [2]?
**A.** Its value is 27%.

**Q.** What about the “Diarrhea Yes: number of subjects” value [2] of the same compound?
**A.** The value was 30.

**Q.** What about the “Clinical Success No: % of subjects” value [3] of the same compound?
**A.** Its value is 40%.

**Q.** What about the “Clinical Success No: number of subjects” value [3] of the same compound?
**A.** The value was 46.

**Q.** And the “Clinical Success Yes: % of subjects” value [3]?
**A.** The value was 60%.

**Q.** And the “Clinical Success Yes: number of subjects” value [3]?
**A.** Its value is 69.

**Q.** What about the “No Recurrence of CDI: % of subjects” value [4] of the same compound?
**A.** Its value is 86%.

**Q.** What about the “No Recurrence of CDI: number of subjects” value [4] of the same compound?
**A.** The value was 63.

**Q.** What about the “Recurrence of CDI: % of subjects” value [4] of the same compound?
**A.** The value was 14%.

**Q.** And the “Recurrence of CDI: number of subjects” value [4]?
**A.** The value was 10.

**Q.** What about the “Recurrence No: % of subjects” value [5] of the same compound?
**A.** Its value is 93%.

**Q.** What about the “Recurrence No: number of subjects” value [5] of the same compound?
**A.** Its value is 105.

**Q.** What about the “Recurrence Yes: % of subjects” value [5] of the same compound?
**A.** Its value is 7%.

**Q.** And the “Recurrence Yes: number of subjects” value [5]?
**A.** Its value is 10.

**Q.** And the “Diarrhea No: % of subjects” value [6]?
**A.** The value was 81%.

**Q.** And the “Diarrhea No: number of subjects” value [6]?
**A.** The value was 90.

**Q.** What about the “Diarrhea Yes: % of subjects” value [6] of the same compound?
**A.** Its value is 19%.

**Q.** What about the “Diarrhea Yes: number of subjects” value [6] of the same compound?
**A.** The value was 21.

**Q.** What about the “Fever No: % of subjects” value [6] of the same compound?
**A.** The value was 98%.

**Q.** What about the “Fever No: number of subjects” value [6] of the same compound?
**A.** The value was 109.

**Q.** What about the “Fever Yes: % of subjects” value [6] of the same compound?
**A.** Its value is 2 (2%).

**Q.** What about the “Fever Yes: number of subjects” value [6] of the same compound?
**A.** Its value is 2 (2%).

**Q.** And the “Severe Abdominal Pain/Discomfort No: % of subjects” value [6]?
**A.** The value was 86%.

**Q.** And the “Severe Abdominal Pain/Discomfort No: number of subjects” value [6]?
**A.** The value was 95.

**Q.** And the “Severe Abdominal Pain/Discomfort Yes: % of subjects” value [6]?
**A.** The value was 14%.

**Q.** What about the “Severe Abdominal Pain/Discomfort Yes: number of subjects” value [6] of the same compound?
**A.** The value was 16.

**Q.** What about the “Clinical Success No: % of subjects” value [7] of the same compound?
**A.** The value was 37%.

**Q.** And the “Clinical Success No: number of subjects” value [7]?
**A.** Its value is 42.

**Q.** And the “Clinical Success Yes: % of subjects” value [7]?
**A.** The value was 64%.

**Q.** What about the “Clinical Success Yes: number of subjects” value [7] of the same compound?
**A.** The value was 73.

**Q.** And the “Global Cure of Diarrhea Yes: % of subjects” value [8]?
**A.** Its value is 74%.

**Q.** And the “Global Cure of Diarrhea Yes: number of subjects” value [8]?
**A.** Its value is 85.

**Q.** And the “Adjusted mean number of unformed stools-ANOVA” value (during the treatment period, Rifaximin N = 117, Vancomycin N = 115)?
**A.** Its value is 1.90.

**Q.** What about the “Diarrhea: % of subjects” value [9] of the same compound?
**A.** The value was 19%.

**Q.** And the “Diarrhea: number of subjects” value [9]?
**A.** The value was 12.

**Q.** What about the “No Diarrhea: % of subjects” value [9] of the same compound?
**A.** Its value is 81%.

**Q.** And the “No Diarrhea: number of subjects” value [9]?
**A.** The value was 50.

**Q.** What about the “Diarrhea: % of subjects” value [10] of the same compound?
**A.** The value was 18%.

**Q.** What about the “Diarrhea: number of subjects” value [10] of the same compound?
**A.** The value was 9.

**Q.** And the “No Diarrhea: % of subjects” value [10]?
**A.** Its value is 82%.

**Q.** And the “No Diarrhea: number of subjects” value [10]?
**A.** The value was 40.

**Q.** And the “Diarrhea: % of subjects” value [11]?
**A.** Its value is 17%.

**Q.** And the “Diarrhea: number of subjects” value [11]?
**A.** Its value is 11.

**Q.** What about the “No Diarrhea: % of subjects” value [11] of the same compound?
**A.** Its value is 83%.

**Q.** And the “No Diarrhea: number of subjects” value [11]?
**A.** Its value is 53.

**Q.** What about the “Diarrhea: % of subjects” value [12] of the same compound?
**A.** Its value is 21%.

**Q.** And the “Diarrhea: number of subjects” value [12]?
**A.** The value was 10.

**Q.** And the “No Diarrhea: % of subjects” value [12]?
**A.** Its value is 79%.

**Q.** And the “No Diarrhea: number of subjects” value [12]?
**A.** The value was 37.
